From patent publication EP0647136B1, “USE OF CONDENSED BIS-(3,4-DIHYDRO-PYRIDINYL)METHANE FOR TREATING CROHN'S DISEASE, COLITIS ULCEROSA, CHRONIC INFLAMATORY PROCESSES AND AS AN ANTIPROLIFERATIVE” (BOEHRINGER INGELHEIM INTERNATIONAL GmbH, priority 1992, dated 1994)

Test system: RBL-2H3-Zellen
Assay: Antigen-induced (DNP-BSA) activation of sensitised RBL-2H3 cells, fluorometric cytoplasmic Ca2+ measurement
Format: cell-based, rat
Details: 10 µM
Text: Verwendet werden einzelne an Glasplättchen adhärente RBL-2H3-Zellen (eine den Mastzellen verwandte Tumorzellinie).
Die Kultivierung und Anhaftung der RBL-2H3-Zellen erfolgt in der HIDE und BEAVEN (1991) beschriebenen Methode. Zur Sensibilisierung der adhäsiven RBL-2H3-Zellen werden die Zellen 2 Stunden bei Raumtemperatur mit einer 1:2000 verdünnten käuflichen Gammaglobulin E-Lösung gegen einen Dinitrophenol-Rinderserumalbumin-Komplex (DNP-BSA-Antigen) inkubiert. Anschließend werden die Zellen gewaschen. Durch Zusatz von 0,1 ml DNP-BSA-Lösung (10 µg/ml) erfolgt eine massive immunologische Zellaktivierung, die durch einen cytoplasmatischen Ca^2+-overload vermittelt wird. Die fluorometrische Calciummessung im Cytoplasma einzelner adhärenter RBL-2H3-Zellen erfolgt in Analogie zu der von KUDO und OGURA (1986) für neuronale Zellen beschriebenen Methode, die auch weiter oben in dieser Beschreibung erläutert wird.

## O=C(O)c1cc(=O)c2c(OCC(O)COc3cccc4oc(C(=O)O)cc(=O)c34)cccc2o1 [Chromoglycat]
  Hemmung der antigen-induzierten Zellaktivierung: ca. 50%
